From article PMC7329800, “Reduction of the serotonin 5-HT1B and 5-HT2A receptor-mediated contraction of human pulmonary artery by the combined 5-HT1B receptor antagonist and serotonin transporter inhibitor LY393558” (Pharmacological Reports, 2020)
“And” between values parts separate entries of the source, which are not always exact repeats. Equal values may be shown once. Read-outs that look alike come from different tables or passages of the source.

Tests used:
human pulmonary arteries [1] = assay: Contraction of isolated human pulmonary arteries by agonists alone (organ bath, cumulative concentration-response curves); format: cell-based; details: for EC50 / Emax: Homo sapiens
Procedure: (§1) Lung tissue was received from 29 men and 5 women (mean age 65 ± 2 years) with lung carcinoma (without PAH) undergoing lobectomy or pneumonectomy. Before the operation, they received cephalosporins and heparin as anti-infection and antithrombotic prophylaxis, respectively. Isolation of hPAs has been described previously. When necessary, endothelium was disrupted by rubbing of the lumen with horse hair. Arterial rings (3–5 mm in length and 2–4 mm in outer diameter) were mounted in 10 ml organ baths containing Tyrode’s solution [17] gassed with 95% O2 and 5% CO2 (37 °C, pH 7.4). Resting tension ranged from 19.6 to 24.5 mN (equivalent to transmural pressure of ~ 16 mmHg). Muscle tension was recorded by a force displacement transducer (BIO-SYS-TECH). After equilibration, rings were exposed to high KCl (60 mM) Tyrode’s solution (equimolar substitution of NaCl by KCl) to check tissue viability and maximum contraction and to phenylephrine (1 µM) followed by acetylcholine (10 µM) to verify if the endothelium is intact. […]. Concentrations of antagonists and citalopram were taken from previous studies. In each preparation, only one experimental curve was determined.
(§2) Results are given as mean ± SEM from n patients. Contractile responses were shown as percentages of the response to KCl 60 mM. GraphPad Prism 5.0 software was used to plot the mean data as sigmoidal CRCs. CRCs were used to determine potency (pEC50) and maximal effect (Emax) of agonists.

human pulmonary arteries [2] = test system: human pulmonary arteries; parameters: method as in PMID 19541711; details: hPAs, other studies; cited from earlier work
human pulmonary arteries [3] = assay: Influence of antagonists/inhibitors on 5-HT-induced vasoconstriction of isolated human pulmonary arteries; format: cell-based; details: for rightward shift of the CRC for 5-HT (factor): ketanserin 0.1 µM, SB224289 0.2 µM, GR55562 1 µM
Procedure: as §1, §2

5-HT2AR = molecular target: T1, 5-HT2AR (Homo sapiens, UniProt P28223); assay: Influence of antagonists on α-methyl-5-HT-induced vasoconstriction of isolated human pulmonary arteries; format: cell-based; details: for Tension (contractile response to α-methyl-5-HT in absolute terms): α-methyl-5-HT in presence of ketanserin 0.01 μM or LY393558 0.1 μM, control α-methyl-5-HT (DMSO)
T1 construct: Arterial rings (3–5 mm in length and 2–4 mm in outer diameter) were mounted in 10 ml organ baths; from tissue; host or cells: human pulmonary artery rings from lung tissue removed at lobectomy or pneumonectomy
T1 sequence (P28223 whole entry): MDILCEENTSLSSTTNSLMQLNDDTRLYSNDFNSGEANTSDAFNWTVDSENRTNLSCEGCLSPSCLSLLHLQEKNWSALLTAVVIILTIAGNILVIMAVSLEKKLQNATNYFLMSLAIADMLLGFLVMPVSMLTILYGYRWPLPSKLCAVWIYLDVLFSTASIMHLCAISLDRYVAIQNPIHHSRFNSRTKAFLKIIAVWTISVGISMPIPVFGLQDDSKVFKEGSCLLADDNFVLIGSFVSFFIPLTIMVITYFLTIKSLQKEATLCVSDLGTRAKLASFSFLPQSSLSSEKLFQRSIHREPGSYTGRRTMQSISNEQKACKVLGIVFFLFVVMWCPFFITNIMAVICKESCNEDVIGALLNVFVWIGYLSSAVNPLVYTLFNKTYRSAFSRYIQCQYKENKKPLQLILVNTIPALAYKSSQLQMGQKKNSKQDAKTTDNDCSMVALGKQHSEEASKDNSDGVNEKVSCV
Procedure: (§3) Lung tissue was received from 29 men and 5 women (mean age 65 ± 2 years) with lung carcinoma (without PAH) undergoing lobectomy or pneumonectomy. Before the operation, they received cephalosporins and heparin as anti-infection and antithrombotic prophylaxis, respectively. Isolation of hPAs has been described previously. When necessary, endothelium was disrupted by rubbing of the lumen with horse hair. […] Muscle tension was recorded by a force displacement transducer (BIO-SYS-TECH). After equilibration, rings were exposed to high KCl (60 mM) Tyrode’s solution (equimolar substitution of NaCl by KCl) to check tissue viability and maximum contraction and to phenylephrine (1 µM) followed by acetylcholine (10 µM) to verify if the endothelium is intact. […] Concentrations of antagonists and citalopram were taken from previous studies. In each preparation, only one experimental curve was determined.
as §2

5-HT1B/1DR = molecular target: T2, 5-HT1B/1DR (Homo sapiens, UniProt P28222); assay: Influence of antagonists on 5-CT-induced vasoconstriction of isolated human pulmonary arteries; format: cell-based; details: 5-CT in presence of SB224289 0.2 μM, GR55562 1 μM or LY393558 0.1 μM; control 5-CT (DMSO)
T2 construct: Arterial rings (3–5 mm in length and 2–4 mm in outer diameter) were mounted in 10 ml organ baths; from tissue; host or cells: human pulmonary artery rings from lung tissue removed at lobectomy or pneumonectomy
T2 sequence (P28222 whole entry): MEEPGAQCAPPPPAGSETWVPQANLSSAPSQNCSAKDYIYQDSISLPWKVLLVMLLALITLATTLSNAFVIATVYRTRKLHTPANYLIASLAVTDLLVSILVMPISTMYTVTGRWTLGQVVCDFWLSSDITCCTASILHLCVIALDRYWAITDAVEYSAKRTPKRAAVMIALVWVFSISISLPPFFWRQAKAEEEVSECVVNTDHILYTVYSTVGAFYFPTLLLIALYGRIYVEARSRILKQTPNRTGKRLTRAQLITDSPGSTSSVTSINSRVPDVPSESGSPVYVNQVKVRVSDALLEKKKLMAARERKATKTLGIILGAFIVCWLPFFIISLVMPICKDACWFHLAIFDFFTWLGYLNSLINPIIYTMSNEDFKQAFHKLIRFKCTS
Procedure: as §3, with “(BIO-SYS-TECH).” for “(BIO-SYS-TECH). After equilibration, rings were exposed to high KCl (60 mM) Tyrode’s solution (equimolar substitution of NaCl by KCl) to check tissue viability and maximum contraction and to phenylephrine (1 µM) followed by acetylcholine (10 µM) to verify if the endothelium is intact.”
as §2

[4] = molecular target: T3, thromboxane A2 (TP) receptor (Homo sapiens, UniProt P21731); assay: Influence of LY393558 on U46619-induced vasoconstriction of isolated human pulmonary arteries; format: cell-based
T3 construct: Arterial rings (3–5 mm in length and 2–4 mm in outer diameter) were mounted in 10 ml organ baths; from tissue; host or cells: human pulmonary artery rings from lung tissue removed at lobectomy or pneumonectomy
T3 sequence (P21731 1-343): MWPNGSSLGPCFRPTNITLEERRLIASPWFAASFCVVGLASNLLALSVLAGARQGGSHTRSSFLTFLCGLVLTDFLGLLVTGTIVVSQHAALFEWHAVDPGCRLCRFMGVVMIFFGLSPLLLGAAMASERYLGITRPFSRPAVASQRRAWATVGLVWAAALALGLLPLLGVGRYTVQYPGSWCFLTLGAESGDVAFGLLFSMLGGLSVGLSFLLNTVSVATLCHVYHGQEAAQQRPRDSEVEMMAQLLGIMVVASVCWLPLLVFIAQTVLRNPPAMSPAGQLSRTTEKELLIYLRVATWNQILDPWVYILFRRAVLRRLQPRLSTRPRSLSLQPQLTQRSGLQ
Procedure: as §1
(§4) Results are given as mean ± SEM from n patients. Contractile responses were shown as percentages of the response to KCl 60 mM. GraphPad Prism 5.0 software was used to plot the mean data as sigmoidal CRCs. […]

α1-adrenoceptor = assay: Influence of LY393558 on phenylephrine-induced vasoconstriction of isolated human pulmonary arteries; format: cell-based
Procedure: as §1, §4

SERT = details: cited from earlier work
5-HT2ARs = molecular target: 5-HT2ARs; parameters: method as in PMID 11734182; details: read-out: pKi at 5-HT2ARs (converted); cited from earlier work
[5] = agonist alone, DMSO vehicle control, endothelium-intact hPAs
[6] = agonist alone, endothelium removed (-ENDO)
[7] = agonist alone, endothelium-intact hPAs
[8] = 5-HT in presence of: citalopram 1 μM, SB224289 0.2 μM, GR55562 1 μM, ketanserin 0.1 μM or combinations, 45 min incubation, endothelium-intact
[9] = SB224289 0.2 μM, GR55562 1 μM, ketanserin 0.1 μM, endothelium-intact
[10] = agonist alone (control of LY393558 experiment, Fig. 3), endothelium-intact hPAs

SMILES: NCCc1c[nH]c2ccc(C(N)=O)cc12 [5-CT, 5-carboxamidotryptamine]
- Emax (percentage of the response to 60 mM KCl) (human pulmonary arteries [1]; [5]): 73 ± 6%
- Tension (contractile response in absolute terms) (human pulmonary arteries [1]; [5]): 8.0 ± 1.0 mN
- pEC50 (human pulmonary arteries [1]; [5]): 6.36 ± 0.09
- efficacy lower than that of 5-HT (human pulmonary arteries [1]; hPAs, this study): 20%
- efficiency less than that of 5-HT (human pulmonary arteries [2]): 50%

SMILES: NCCc1c[nH]c2ccc(O)cc12 [5-HT, serotonin]
- EC50 (human pulmonary arteries [1]; [5]): 457 nM
- EC50 (human pulmonary arteries [1]; [6]): 1700 nM
- EC50 (human pulmonary arteries [1]; [7]): 631 nM
- Emax (human pulmonary arteries [1]; read-out: Emax (percentage of the response to 60 mM KCl), agonist alone, DMSO vehicle control, endothelium-intact hPAs): 82 ± 4%
- Emax (human pulmonary arteries [1]; read-out: Emax (percentage of the response to 60 mM KCl), agonist alone, endothelium removed (-ENDO)): 92 ± 4%
- Emax (human pulmonary arteries [1]; read-out: Emax (percentage of the response to 60 mM KCl), agonist alone, endothelium-intact hPAs): 94 ± 4%
- Tension (contractile response in absolute terms) (human pulmonary arteries [1]; [5]): 8.5 ± 1.8 mN
- Tension (contractile response in absolute terms) (human pulmonary arteries [1]; [6]): 9.4 ± 1.2 mN
- Tension (contractile response in absolute terms) (human pulmonary arteries [1]; [7]): 9.7 ± 1.0 mN

SMILES: CN(C)CCCC1(c2ccc(F)cc2)OCc2cc(C#N)ccc21 (stereo not drawn) [Citalopram]
- Tension (contractile response to 5-HT in absolute terms) (human pulmonary arteries [3]; 5-HT + citalopram 1 μM, endothelium removed (-ENDO)): 7.6 ± 1.3 mN
- Tension (contractile response to 5-HT in absolute terms) (human pulmonary arteries [3]; [8]): 8.9 ± 1.3 mN
- influence on the potency of 5-HT (human pulmonary arteries [3]; citalopram 1 µM, endothelium-denuded preparations): enhanced the potency of 5-HT
- influence on the CRC for 5-HT (human pulmonary arteries [3]; citalopram 1 µM, endothelium-intact hPAs): did not influence the CRC for 5-HT

SMILES: CN(C)CCCc1cc(C(=O)Nc2ccc(-c3ccncc3)cc2)ccc1O [GR55562]
- Tension (contractile response to 5-HT in absolute terms) (human pulmonary arteries [3]; [8]): 7.2 ± 2.0 mN
- pA2 against 5-HT (human pulmonary arteries [3]; [9]): 6.6 and 6.63
- rightward shift of the CRC for 5-HT (factor) (human pulmonary arteries [3]): 5

SMILES: O=C(c1ccc(F)cc1)C1CCN(CCn2c(=O)[nH]c3ccccc3c2=O)CC1 [Ketanserin, ketanserin]
- Tension (contractile response to 5-HT in absolute terms) (human pulmonary arteries [3]; [8]): 7.7 ± 1.2 mN
- pA2 against 5-HT (human pulmonary arteries [3]; [9]): 7.40
- pA2 against 5-HT (human pulmonary arteries [3]; SB224289 0.2 μM, GR55562 1 μM, ketanserin 0.1 μM, endothelium-intact, listed as ketanserin): 7.4
- rightward shift of the CRC for 5-HT (factor) (human pulmonary arteries [3]): 3
- vasoconstriction induced by α-methyl-5-HT diminished by (5-HT2AR; LY393558, ketanserin 0.01 µM (Discussion)): 30%
- Tension (contractile response to α-methyl-5-HT in absolute terms) (5-HT2AR): 9.7 ± 2.3 mN

SMILES: CC(C)N1Cc2cc(S(C)(=O)=O)ccc2N(CCN2CC=C(c3c[nH]c4cc(F)ccc34)CC2)S1(=O)=O [LY393558]
- Tension (contractile response to 5-HT in absolute terms) (human pulmonary arteries [3]; 5-HT + LY393558 0.1 μM, control 5-HT (DMSO), endothelium-intact): 9.1 ± 1.7 mN
- pA2 against 5-HT (human pulmonary arteries [3]; LY393558 0.1 μM, control 5-HT (DMSO), endothelium-intact): 8.3 and 8.25
- Tension (contractile response to 5-CT in absolute terms) (5-HT1B/1DR): 7.3 ± 2.0 mN
- Tension (contractile response to α-methyl-5-HT in absolute terms) (5-HT2AR): 10.5 ± 2.4 mN
- effect on the vasoconstrictory effects of U46619 ([4]; LY393558 0.1 µM): did not modify
- pA2 at human TP receptors ([4]; from lack of effect of 0.1 µM on U46619 response): < 7.0
- effect on the vasoconstrictory effects of phenylephrine (α1-adrenoceptor; LY393558 0.1 µM): did not modify
- pA2 at human α1 receptors (α1-adrenoceptor; from lack of effect of 0.1 µM on phenylephrine response): < 7.0
- Ki (SERT; read-out: Ki (SERT inhibition)): ~1 nM
- Ki (5-HT2ARs): ~100 nM

SMILES: Cc1nc(-c2ccc(-c3ccc(C(=O)N4CCc5cc6c(cc54)C4(CCN(C)CC4)CO6)cc3)c(C)c2)no1 [SB224289]
- Tension (contractile response to 5-HT in absolute terms) (human pulmonary arteries [3]; [8]): 7.0 ± 1.9 mN
- pA2 against 5-HT (human pulmonary arteries [3]; [9]): 7.0 and 7.02
- Tension (contractile response to 5-CT in absolute terms) (5-HT1B/1DR): 10.0 ± 3.3 mN
- affinity for the SERT (SERT): has no affinity for the SERT

SMILES: CCCCC[C@H](O)/C=C/[C@@H]1[C@@H](C/C=C\CCCC(=O)O)[C@H]2CO[C@@H]1C2 [U46619]
- Emax (relative to the KCl-induced response) (human pulmonary arteries [1]; [10]): 109 ± 6%
- pEC50 (human pulmonary arteries [1]; [10]): 8.60 ± 0.10

SMILES: CNC[C@H](O)c1cccc(O)c1 [phenylephrine, (–)-phenylephrine]
- EC50 (human pulmonary arteries [1]; [10]): 3160 nM
- Emax (human pulmonary arteries [1]; agonist alone (control of LY393558 experiment, Fig. 3), endothelium-intact hPAs, read-out: Emax (relative to the KCl-induced response)): 68 ± 5%

SMILES: CC(N)Cc1c[nH]c2ccc(O)cc12 (stereo not drawn) [α-Methyl-5-HT, α-methyl-5-HT]
- Emax (percentage of the response to 60 mM KCl) (human pulmonary arteries [1]; [5]): 79 ± 5%
- Tension (contractile response in absolute terms) (human pulmonary arteries [1]; [5]): 10.5 ± 1.0 mN
- pEC50 (human pulmonary arteries [1]; [5]): 5.89 ± 0.08
